Structures can show the parent of a compound that is named as a salt. Where two headings read alike, the source gives them in different places.

One test has as its system Mac-1 (CD11b/CD18). The conditions noted are these: for Mac-1 expression on PMNs, other GSL: 100 nmol/L, 20 minutes.
The next test concerns ICAM-1. The note with it: for effect on LacCer mediated stimulation of ICAM-1 expression: 5 μM LacCer 4 hours, DPI 10 μM 30 minutes, NAC 15 mM 30 minutes, PDTC 100 μM 1 hour.
The next test deals with vascular cells. The conditions noted are these: reported in literature; cited from earlier work.
In a further test the test system is GlcCer, LacCer. Description: Glycosphingolipid levels (HPLC) in thoracic aorta of balloon angioplasty rabbits. Type of test: in vivo. The note with it: rabbit thoracic aorta. The method, then:
(§1) Experiments were performed on rabbits to examine the effects of D-PDMP on aortic stenosis following balloon angioplasty. The rabbits were given intramuscular injection of D-PDMP (10 mg/kg) or vehicle 24 hours prior to balloon angioplasty and this regimen was continued for 15 days. Next, the thoracic aorta was harvested, the glycosphingolipids was measured by HPLC analysis, and GalT-2 activity was measured employing assays described above.

In a further test the test system is intimal proliferation. As to the kind of experiment: Intimal proliferation following balloon angioplasty in rabbits (aorta histology). Format: in vivo. The note with it: rabbit aorta; 10 mg/kg intramuscular daily for six weeks after balloon angioplasty. The text has this: A rabbit model of restenosis accompanying an invasive surgical procedure such as balloon angioplasty is preferred. One suitable protocol involves administering to the rabbit a suitable vehicle or vehicle combined with one or more GalT-2 inhibitor compounds of interest. The amount of the GalT-2 inhibitor compound administered will vary depending on several parameters including the extent of damage associated with the surgical procedure of interest. In instances where balloon angioplasty is employed, the rabbit will typically receive a candidate GalT-2 inhibitor compound in a dose (e.g., i.m. or i.p.) of between about 0.5 to 100, preferably 1 to 20 and more preferably about 10 mg/kg body weight of the rabbit. A preferred dosage schedule provides for administration of a GalT-2 inhibitor compound starting 24 hurs prior to conducting an invasive surgical procedure, and then continuing administration of the GalT-2 inhibitor compound for 15 days following the surgical procedure. In other protocols, daily injections of the GalT-2 inhibitor compound may be made for about 2 to 12 weeks following the invasive surgical procedure. […] Subsequently, the rabbits are euthanized and a vessel removed for examination, preferably the aorta The vessel is then fixed with formalin and analyzed for proliferation of vascular endothelia, media and advantitia using standard histological procedures. […]

The next test addresses T1, GlcT-1 (Homo sapiens, UniProt Q16739).
T1 sequence (Q16739 1-394): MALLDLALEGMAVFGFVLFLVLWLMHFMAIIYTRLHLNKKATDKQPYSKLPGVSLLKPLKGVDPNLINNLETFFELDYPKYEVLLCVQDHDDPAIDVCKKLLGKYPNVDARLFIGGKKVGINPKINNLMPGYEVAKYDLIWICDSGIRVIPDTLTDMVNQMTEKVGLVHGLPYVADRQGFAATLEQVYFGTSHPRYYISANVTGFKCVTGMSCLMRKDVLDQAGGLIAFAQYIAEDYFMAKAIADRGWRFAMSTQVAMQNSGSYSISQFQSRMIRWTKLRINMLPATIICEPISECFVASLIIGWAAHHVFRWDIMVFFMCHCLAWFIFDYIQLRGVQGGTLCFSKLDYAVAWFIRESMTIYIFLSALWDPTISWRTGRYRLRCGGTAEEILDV
The conditions noted are these: reported in literature; cited from earlier work.

In test [1] the test system is GalT-2. Description: GalT-2 activity in endothelial cells. Format: cell-based, human. As to the method: Particularly preferred are GalT-2 assays conducted with the ASMCs and performed in accordance with previously described methods. See e.g., Chatterjee, S., and Castiglione, E. (1987) Biochem. Biophys. Acta, 923:136; and Chatterjee, (1991) S. Biochem. Biophys. Res Comm., 181:554.
Another preferred assay of the invention includes the following steps a) through d):
a) culturing a population of LacCer-responsive cells preferably to confluency in lipoprotein-deficient serum medium, e.g., about 1 mg lipoprotein-deficient serum/protein/ml of medium or less;
b) harvesting the cells preferably in a suitable dispersive buffer, e.g., cacodylate buffer,
c) incubating the harvested cells preferably with a detectably labeled molecule such as a detectably-labeled nucleoside diphosphate sugar donor such as [^14 C]-UDP-galactose typcially in an amount between about 0. 1 to 100 μCi; and
d) measuring LacCer formation as indicative of the activity of the GalT-2 enzyme.

Test [2] relates to GalT-2. As to the kind of experiment: GalT-2 activity in thoracic aorta of balloon angioplasty rabbits. Format: in vivo. The note with it: rabbit thoracic aorta; 10 mg/kg intramuscular, 15 days. The method, then: as §1
The test system of test [3] is neutrophil adhesion to Eahy 926 cells. Description: Confocal microscopic study of adhesion of human neutrophils to Eahy 926 endothelial cells. Format: cell-based. The conditions noted are these: endothelial cells preincubated with 10 μM DPI or 15 mM NAC 30 minutes, then 5 μM LacCer 4 hours.
Test [4] deals with PMNs. As to the kind of experiment: ROM generation by PMNs (DCFH-DA). Format: cell-based, human. The note with it: 100 or 200 nmol/L LacCer.
Another test relates to Eahy 926 cells. As to the kind of experiment: Superoxide production by intact Eahy 926 (lucigenin chemiluminescence). Type of test: cell-based, human. The conditions noted are these: 5 μM LacCer; DPI 10 μM 30 minutes, NAC 15 mM 30 minutes, SOD exogenously added (200 U/ml), allopurinol.
For test [5], the system named is PMNs. As to the kind of experiment: Superoxide generation in PMNs (lucigenin). The conditions noted are these: SOD 500 U/ml, DPI 10 μM/L, apocyanin 90 μmol/L, about 15 minutes preincubation; 100 nmol LacCer 20 minutes. Type of test: cell-based, human.
Test [6] deals with PMN adhesion to unstimulated endothelial cells. Description: PMN-endothelial adhesion assay. The note with it: 100 nmol/L LacCer; anti-CD18 5 μg/ml; quinacrine increasing doses. Format: cell-based, human. The method, then: 12. PMN-Endothelial Adhesion Assay. PMNs were labeled fluorescently by incubation with 5 μmol/L Calcein-AM (Molecular Probes) in calcium-free PBS for 20 minutes at 37° C., washed and resuspended in Hanks' balanced salt solution (Gibco) containing 0.2% bovine serum albumin (BSA). These PMNs were then treated with LacCer (or vehicle, 0.05% DMSO), washed 3 times with PBS and then plated on the unstimulated ec monolayers, which had been grown to confluence in 24-well plates. The PMNs (600 μL of 2×10^6 /mL/well) then were incubated with the ecs for 30 minutes at 37° C. Non-adherent PMNs were then removed by gentle washing 3 times with PBS. The residual adherent PMNs (and ecs) were then lysed using 4mmol/L Zwittergent Calbiochem, La Jolla, Calif.) and the plates read on a fluorescence plate reader (Millipore) at EX 480 nm/EM 530 nm. The number of adherent PMNs were expressed as number of PMN/mm^2 ec monolayer, based on the mean fluorescent intensity of each PMN, as determined from a standard curve. 13. Additional Methods. LacCer, ceramide and […] (all from Sigma) were prepared as described in examples below, and used as putative agonists for the stimulation of PMN adhesion molecule expression, assayed by FACScan. […]

[7] abbreviates: inhibitor 20 minutes, then 100 nmol/L LacCer 20 minutes, BPB 10 μmol/L.
The mark [8] stands for this setting: endothelial cells preincubated with D-PDMP.
[9] abbreviates: balloon angioplasty, 10 mg/kg intramuscular from 24 hours prior, continued for 15 days.
Where [10] appears, read: endothelial cells, TNF-α as stimulant.

On to `CC(=O)OCOC(=O)CN(CC(=O)OCOC(C)=O)c1ccccc1OCCOc1ccccc1N(CC(=O)OCOC(C)=O)CC(=O)OCOC(C)=O` [BAPTA/AM], for which the “effect on LacCer-stimulated Mac-1 upregulation on PMNs” value (“effect … on PMNs” below) in the test with Mac-1 (CD11b/CD18) (setting [7]) was “did not inhibit”.

On to `CCCCCCCCCC(=O)N[C@H](CN1CCOCC1)[C@H](O)c1ccccc1` [D-PDMP, (1R, 2R)-1-phenyl-2-decanoylamino-3-morpholino-1-propanol], for which the “ICAM-1 expression induced by TNF-α” value in the test with ICAM-1 (setting [8]) is given as “concentration-dependent decrease”. The “proliferation of vascular cells” value with vascular cells is “reduces”. Besides, the “level of GicCer and LacCer” value in the test on GlcCer, LacCer (10 mg/kg intramuscular, 15 days) is given as “decrease significantly”. Also, in the test on GlcCer, LacCer (setting [9]), the “GSL Concentration GlcCer” value turned out to be 6 μg/gm wet weight and the “GSL Concentration LacCer” value stood at 10 μg/gm wet weight. For the same molecule, the “intimal proliferation at the site of balloon angioplasty” value in the test on intimal proliferation is given as “complete absence of intimal proliferation”. Besides, the “inhibition of GlcT-1” value on GlcT-1 is “inhibits”. In the test with GalT-2 [1] (setting [8]), the “GalT-2 activity induced by TNF-α” value is on record as “concentration-dependent decrease”. Further, the “decrease of GalT-2 activity versus vehicle” value with GalT-2 [2] is reported as ~ 1.7 fold.

For the molecule `c1ccc2c(c1)[I+]c1ccccc1-2` [DPI, diphenyleneiodonium chloride], in the test on ICAM-1, the “effect on LacCer mediated stimulation of ICAM-1 expression” value (“effect on LacCer mediated stimulation” below) was “inhibited”. Besides, the “effect … on PMNs” value with Mac-1 (CD11b/CD18) is listed as “did not inhibit”. In test [3], the “effect on LacCer-induced neutrophil adhesion” value was “attenuated”. Further, the “effect on neutrophil ROM generation induced by LacCer” value in the test with PMNs [4] is reported as “completely blocked”. Also, the “effect on LacCer induced generation of O2- in endothelial cells” value (shortened to “effect on LacCer induced generation”) with Eahy 926 cells is “failed to respond”. Also, in the test on PMNs [5], the “effect on LacCer induced superoxide generation in PMNs” value is given as “relatively less inhibitory”. Besides, the “effect on NADPH oxidase activity in membrane preparations of LacCer stimulated cells” value in the test with NADPH oxidase is “attenuated”.

Consider `CC(=O)N[C@@H](CS)C(=O)O` [NAC, N-acetylcysteine], for which the “effect on LacCer mediated stimulation” value in the test with ICAM-1 is given as “inhibited”. Besides, the “effect … on PMNs” value in the test with Mac-1 (CD11b/CD18) (setting [7]) is “did not inhibit”. Further, the “effect on LacCer-induced neutrophil adhesion” value in test [3] is “attenuated”. In addition, in the test on PMNs [4], the “effect on neutrophil ROM generation induced by LacCer” value is on record as “inhibited”. Further, the “effect on LacCer induced generation” value with Eahy 926 cells was “reduced”.

Regarding `S=C(S)N1CCCC1` [PDTC], the “effect on LacCer mediated stimulation” value in the test with ICAM-1 was “inhibited”.

Turning to `Cc1nnc2n1-c1sc(CCC(=O)N3CCOCC3)cc1C(c1ccccc1Cl)=NC2` [WEB 2086], the “effect … on PMNs” value in the test on Mac-1 (CD11b/CD18) is on record as “No significant inhibition”.

As for `Oc1ncnc2[nH]ncc12` [allopurinol], the “effect on LacCer induced generation” value in the test with Eahy 926 cells is “failed to inhibit”.

Turning to `COc1cc(C(C)=O)ccc1O` [apocyanin], the “effect on LacCer induced superoxide generation in PMNs” value in the test on PMNs [5] is given as “relatively less inhibitory”.

As to `O=c1c(-c2ccc(O)cc2)coc2cc(O)cc(O)c12` [genistein], the “effect … on PMNs” value in the test on Mac-1 (CD11b/CD18) (setting [7]) was “did not inhibit”.

As to `CCN(CC)CCCC(C)Nc1c2ccc(Cl)cc2nc2ccc(OC)cc12` (centres unmarked) [quinacrine, quinacrine dihydrochloride], in the test with Mac-1 (CD11b/CD18) (setting [7]), the “effect … on PMNs” value is “did block”. Further, the “effect on LacCer induced PMN adhesion” value in test [6] is “inhibited”.

For the molecule `C=C(C)[C@H]1Cc2c(ccc3c2O[C@@H]2COc4cc(OC)c(OC)cc4[C@@H]2C3=O)O1` [rotenone], the “effect on NADPH oxidase activity in membrane preparations of LacCer stimulated cells” value with NADPH oxidase (DPI 10 μM 30 minutes, rotenone 1 mM) is listed as “did not inhibit”.

For `CN[C@@H]1C[C@H]2O[C@@](C)([C@@H]1OC)n1c3ccccc3c3c4c(c5c6ccccc6n2c5c31)C(=O)NC4` [staurosporine], the “effect … on PMNs” value with Mac-1 (CD11b/CD18) is reported as “did not inhibit”.

As to TNF-α, the “stimulation of ICAM-1 expression” value in the test with ICAM-1 (setting [10]) is “concentration-dependent stimulation”. The “increase in GalT-2 activity” value in the test on GalT-2 [1] (setting [10]) was determined as 1.7 fold.

With ceramide, in the test on Mac-1 (CD11b/CD18), the “Mac-1 expression on PMNs, other GSL” value is recorded as “did not alter”.

On to glucosylceramide [GIcCer], for which, in the test with Mac-1 (CD11b/CD18), the “Mac-1 expression on PMNs, other GSL” value is reported as “did not alter”.
